According to patent US10329304B2, “Compounds and methods for inhibition of hedgehog signaling and phosphodiesterase” (Vanderbilt University, priority 2014, dated 2019):
“Also recorded” adds a separate entry of the source.

Legend:
[1] = Mouse echocardiography after IP injection; type: in vivo; conditions: for Heart rate: 5 mg/kg to 20 mg/kg IP
Protocol: As shown below (FIGS. 28 and 29), ionotropic effects are seen within 30 minutes of eggmanone administration to a mouse (20 mg/kg IP injection). […] Mechanistically compound EGM targets the hydrolase PDE4. In Human adult myocardium, PDE4 localizes strictly to the z-bands.

Gli2 trafficking = assay: Gli2 ciliary localization and nuclear fraction western blot in NIH3T3 cells; type: cell-based; conditions: SAG 20 nM; for Gli2 localization in the primary cilium: 5 μM; for SAG-induced nuclear accumulation of full-length Gli2: Egm 10 μM, FSK 30 μM
Daoy cells = assay: Daoy cell proliferation (PH3 staining) and apoptosis (TUNEL); type: cell-based, human; conditions: 10 μM, 48-hours
[2] = system: Gli-Luc reporter activity; assay: Gli-luciferase reporter under Gli overexpression; type: cell-based
Protocol: For Hh signaling assays, Shh-Light2 cells stably transfected with Gli-Luciferase reporter construct were used along with Shh-conditioned media, as previously described^7. Alternatively, 3 μM purmorphamine or 20 nM Smoothened agonist (SAG) (Santa Cruz Biotechnology, Santa Cruz, Calif.) was used to induce Hh signaling. Reporter cells were seeded in 96-well plates and incubated overnight with the various concentrations of eggmanone and Shh-conditioned media. To assess the effects of overexpression of Gli-2, PDE4D3 and DN-PDE4D3 on Hh signaling, mammalian expression vectors containing these constructs were transfected into Shh-Light2 cells in 96-well plates using Fugene6 (Roche), according to manufacturer's instructions. The transfected or Shh-stimulated cells were incubated overnight with the various concentrations of compound. The cells were then lysed, and cell extracts were subjected to Steady-Glo luciferase assay (Promega) according to manufacturer's instructions. The results were normalized to cell titer, as determined using Cell Titer-Glo luminescence assay (Promega).

ptch1 expression = assay: Whole mount zebrafish in situ hybridization for ptch1; type: in vivo; conditions: 2 μM from 4 hpf
Protocol: In situ hybridization was performed as previously described. Zebrafish ptch1 probes were produced as previously described.

PKA activation = assay: Immunostaining of autophosphorylated PKA catalytic subunit in NIH3T3 cells; type: cell-based; conditions: SAG-stimulated NIH3T3 cells, Egm 5 μM, Rolipram 10 μM
Protocol: NIH3T3 cells were plated on Poly-D-Lysine-coated glass coverslips and were cultured at 37° C., 5% CO2 in DMEM medium containing 10% fetal bovine serum until reaching 75% confluency. For one set of experiments, cells were then transfected with VSV-tagged PDE4D3 plasmid (gift from Miles Houslay, University of Glasgow, Scotland, UK) using Fugene6 transfection reagent (Roche, Indianapolis, Ind.) per manufacturer's protocol. Afterward, cell medium was replaced with DMEM/0.5% FBS containing either 5 μM eggmanone or DMSO and incubated overnight at 37° C., 5% CO2. Cells were fixed in 4% PFA at room temperature for 10 minutes prior to permeabilization, blocking, and staining with primary antibodies against Arl13b (gift of Tamary Caspary, Emory University, Atlanta, Ga.) and VSV (AbCam, Cambridge, Mass.). Fluorescent immunocytochemistry was performed using species-specific, secondary antibodies (Jackson Immunoresearch, West Grove, Pa.). For additional immunocytochemistry experiment, cells were treated with 20 nM SAG in the presence or absence of 5 uM Eggmanone. After overnight incubation, cells were washed with PBS, fixed for 10 minutes in 4% PFA, permeabilized 20 minutes at −20C with cold methanol, blocked with PBS/1% BSA, and incubated with primary antibodies to phospho-PKA catalytic domain Thr197 (Cell Signaling, Danvers, Mass.) and then to Arl13b. An additional overnight blocking step using unconjugated rabbit IgG was required between primary antibody incubations since both antibodies were produced in rabbit. Fluorescent conjugated secondary antibodies were used for visualization. Data analysis was performed in part through the use of the VUMC Cell Imaging Shared Resource.
Using ImageJ software (National Institutes of Health, developed by W. Rasband), a region of interest was created using the magic wand tool on Arl13b channel and transposed to the Gli2 channel, and integrated density was measured and reported as arbitrary units (a.u.). For phospho-PKA, using ImageJ, a line selection tool was used to select a line projected through the length of the primary cilia and an equal length beyond. The intensity values were potted and the cumulative florescence (area under the curve) was calculated for three cilia, blindly, for each treatment. These values for cilia and pericilia domain were analyzed by a two tailed students t-test. For correlation analysis, correlation coefficient for intensity of gamma-tubulin and phosphor-PKA were calculated and compared among treatments with students t-test.

mouse cardiomyocytes = assay: Calcium handling in isolated mouse cardiomyocytes; type: cell-based; conditions: 10 μM
Text: To observe whether the effects of eggmanone administration are cardiomyocyte specific or due to off target effects, the contractility of individual mouse cardiomyocytes and the tone of ascending/descending aorta was observed. In mouse cardiomyocytes, Egm caused a 50% increase in contractility over vehicle control (FIG. 32).

Influenza = Influenza antiviral effect; type: cell-based
[3] = system: Bovine Viral Diarrhea Virus; assay: BVDV CPE assay; type: cell-based
Protocol: Provided in FIG. 37 are the results from BVDV (Bovine Viral Diarrhea Virus, surrogate for Hepatitis C virus) CPE ([…]) testing done. The assay was repeated with […] (a PDE4B and PDE4D inhibitor). Hi913 (our prototypic PDE4 inhibitor) was tested in half-log concentrations ranging from 100 μM to 0.33 μM. As the stock solution of […] was 10 mM, this meant that the final DMSO concentrations for the highest Hi913 concentrations were 1%, 0.33%, and 0.1%. The normal final DMSO concentrations used is 0.1%, so additional DMSO controls of 1% and 0.33% were included. The Hi913 data for the highest 3 concentrations is normalized to the respective DMSO concentrations. […] The outlier effects at 100 μM are probably due to cytotoxicity at the high drug concentration.

[4] = Lipophilic efficiency (LipE = pEC50 − cLogP) and cLogP
Summary of the method: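 pEC50 came from TM3-Gli-Luc Gli-responsive luciferase reporter cells stimulated with 20 nM SAG, with non-specific cytotoxicity monitored in parallel. LipE was calculated by subtracting cLogP from pEC50.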

[5] = healthy wild type mice and mice with heart failure
[6] = Calculated as pEC50 - cLogP, Molinspiration Cheminformatics

Row | Compound | Heart rate [1] | Fractional shortening (FS) [1, 5] | Gli2 localization in the primary cilium (Gli2 trafficking) | SAG-induced nuclear accumulation of full-length Gli2 (Gli2 trafficking) | Gli-luciferase reporter activity under Gli2 overexpression [2] | Hh-responsive ptch1 expression in embryos (ptch1 expression) | PKA activation (phospho-PKA-C staining), spatial distribution (PKA activation) | LipE [4, 6] | LipE ([4]; pEC50 - cLogP, Table 14) | other results
1 | C=C(C)Cn1c(SCC(=O)c2cccs2)nc2sc3c(c2c1=O)CCCC3 [EGM, Eggmanone] | without increasing heart rate; also recorded: does not increase the heart rate | increases fractional shortening (FS) | significantly increased Gli2 localization in the cilium | abrogated | had no significant effect on Gli-luciferase reporter activity under Gli2 overexpression conditions | abolished Hh-responsive ptch1 expression in adaxial cells; also recorded: abolished Hh-responsive ptc1 expression in adaxial cells; also recorded: abolished Hh-responsive ptch1 expression in somites | increases local PKA activation at the base of the primary cilia; also recorded: spatially restricted activation of PKA around the centrosome |  |  | End-diastolic left ventricular internal dimension (LVIDd) [1, 5]: decreases end-diastolic left ventricular internal dimension (LVIDd); Side effects ([1]; mice): no significant side effects; Time to return to baseline heart function ([1]; mice): ≤ 24 h; Gli2 localization in the primary cilium (Gli2 trafficking; listed as Egm): significantly increased Gli2 localization in the cilia; SAG-induced nuclear accumulation of full-length Gli2 (Gli2 trafficking; listed as Egm): abrogated; Apoptosis (TUNEL staining) (Daoy cells): increased apoptosis; Cell proliferation (phospho-histone H3 staining) (Daoy cells): decreased cell proliferation; PKA activation (phospho-PKA-C staining), spatial distribution (PKA activation; listed as Egm): increases local PKA activation at the base of the primary cilia; also recorded: increases local PKA activation at the basal body; Calcium handling (mouse cardiomyocytes): not associated with alterations in calcium handling
2 | C=C(C)Cn1c(SCC(=O)c2cccs2)nc2sc3c(c2c1=O)CCCC3 [Eggmanone, 3-(2-methylallyl)-2-((2-oxo-2-(thiophen-2-yl)ethyl)thio)-5,6,7,8-tetrahydrobenzo[4,5]thieno[2,3-d]pyrimidine-4(3H)-one] | without increasing heart rate | increases fractional shortening (FS) and ejection fraction (EF) | significantly more Gli2 accumulated in Eggmanone-treated cilia than in controls | blunted the nuclear accumulation of the full-length Gli2 | did not block Gli-Luc reporter activity in cells transiently overexpressing Gli2 | abrogated the expression of the Hh target gene patched-1 (ptch1) | significantly increased the intensity of PKA activation almost exclusively at the basal body |  |  | Time to ionotropic effects ([1]; 20 mg/kg IP injection): ≤ 30 min; Gli2 localization in the primary cilium (Gli2 trafficking; listed as eggmanone): more Gli2 accumulated in eggmanone-treated cilium than in controls; SAG-induced nuclear accumulation of full-length Gli2 (Gli2 trafficking; listed as eggmanone): blunted the nuclear accumulation of the full-length Gli2; PKA activation (phospho-PKA-C staining), spatial distribution (PKA activation; listed as eggmanone): significantly increased the intensity of PKA activation almost exclusively in the basal body; Antiviral effect on Influenza (Influenza): has antiviral effects; Antiviral effect on BVDV [3]: has antiviral effects
3 | CCCn1c(SCC(=O)c2cccs2)nc2sc3c(c2c1=O)CCCC3 [Formula 9e] |  |  |  |  |  |  |  | 1.06 | 1.06 | 
4 | C=C(C)Cn1c(SCC(=O)c2ccccc2)nc2sc3c(c2c1=O)CCCC3 [Formula 9g] |  |  |  |  |  |  |  | −0.01 | −0.01 | 
